Measurements from patent US20260159481A1, “INDOLE DERIVATIVE WITH SUBSTITUENT AND PHARMACEUTICAL USE” (MITOIMMUNE THERAPEUTICS INC., priority 2023, published 2026).

The molecules below were run on cardiac cells (H9C2) (assay: Protective effect against t-BHP-induced cell death in cardiac cells (LDH release)). Settings: Rattus norvegicus, t-BHP 400 PM, 2 hours, read-out: EC50, protective effect against cell death due to t-BHP induction.
Format: cell-based
Description: To confirm a protective effect on cardiac cells, H9C2 cells were seeded at 1.5×10^4 cells/well in a 96-well plate and cultured for 24 hours. The example compounds were diluted to have the final concentration of 0.001, 0.01, 0.03, 0.1, 0.3, 1, 3, 10, and 30 PM, respectively, and then added to different wells, and the resulting cells were cultured for 15 to 20 minutes. Tert-butyl hydroperoxide (t-BHP) was treated to have the final concentration of 400 PM, and the resulting cells were cultured for 2 hours. To confirm the cell death protection effect of each compound, the degree of extracellular secretion of lactate dehydrogenase (LDH) was measured using a cytotoxicity LDH assay kit [Dojindo; CK12]. Briefly, after 2 hours of t-BHP treatment on the cells, 70 μL of the supernatant was taken from the 96-well plate where the cells were cultured and transferred to a new 96-well plate. The assay buffer included in the kit was added at 70 μL/well (equal to that of the sample) and the plate was covered with foil to block light and allowed to react for 15 minutes at room temperature. While observing a color change of each sample, 35 μL/well of a stop solution was added, an absorbance at 490 nm was measured using an iD3 spectrophotometer, and an EC50 value was calculated.

`CCN(CC)C(=O)c1cc(NC2CCCC2)c2[nH]c(-c3ccccc3)cc2c1` [Example 1, 7-(cyclopentylamino)-N,N-diethyl-2-phenyl-1H-indol-5-carboxamide] and `CCN(CC)C(=O)c1cc(NC2CCOCC2)c2[nH]c(-c3ccccc3)cc2c1` [Example 2, N,N-diethyl-2-phenyl-7-((tetrahydro-2H-pyran-4-yl)amino)-1H-indol-5-carboxamide] cannot be ordered by EC50: no more than 300 nM for the first, no more than 300 nM for the second.

`CCN(CC)C(=O)c1cc(NCc2ccccc2)c2[nH]c(-c3ccccc3)cc2c1` [Example 3, 7-(benzylamino)-N,N-diethyl-2-phenyl-1H-indole-5-carboxamide] and `CCN(CC)C(=O)c1cc(NCc2ccncc2)c2[nH]c(-c3ccccc3)cc2c1` [Example 4, N,N-diethyl-2-phenyl-7-((pyridin-4-ylmethyl)amino)-1H-indole-5-carboxamide] cannot be ordered by EC50: no more than 300 nM for the first, no more than 300 nM for the second.

`O=C(NC1CC1)c1cc(NC2CCCC2)c2[nH]c(-c3ccccc3)cc2c1` [Example 5, 7-(cyclopentylamino)-N-cyclopropyl-2-phenyl-1H-indole-5-carboxamide] and `O=C(NC1CC1)c1cc(NC2CCOCC2)c2[nH]c(-c3ccccc3)cc2c1` [Example 6, N-cyclopropyl-2-phenyl-7-((tetrahydro-2H-pyran-4-yl)amino)-1H-indole-5-carboxamide] cannot be ordered by EC50: no more than 300 nM for the first, no more than 300 nM for the second.

`O=C(NC1CC1)c1cc(NCc2ccccc2)c2[nH]c(-c3ccccc3)cc2c1` [Example 7, 7-(benzylamino)-N-cyclopropyl-2-phenyl-1H-indole-5-carboxamide] and `O=C(Cc1cc(NCc2ccccc2)c2[nH]c(-c3ccccc3)cc2c1)NC1CC1` [Example 17, 2-(7-(benzylamino)-2-phenyl-1H-indol-5-yl)-N-cyclopropylacetamide] cannot be ordered by EC50: no more than 300 nM for the first, no more than 300 nM for the second.

`O=C(Nc1ccccc1)c1cc(NC2CCOCC2)c2[nH]c(-c3ccccc3)cc2c1` [Example 9, N,2-diphenyl-7-((tetrahydro-2H-pyran-4-yl)amino)-1H-indole-5-carboxamide] and `O=C(Cc1cc(NC2CCOCC2)c2[nH]c(-c3ccccc3)cc2c1)Nc1ccccc1` [Example 19, N-phenyl-2-(2-phenyl-7-((tetrahydro-2H-pyran-4-yl)amino)-1H-indo1-5-yl)acetamide] cannot be ordered by EC50: 300 to 1000 nM for the first, no more than 300 nM for the second.

`O=C(Nc1ccccc1)c1cc(NCc2ccccc2)c2[nH]c(-c3ccccc3)cc2c1` [Example 10, 7-(benzylamino)-N,2-diphenyl-1H-indole-5-carboxamide] and `O=C(Cc1cc(NCc2ccccc2)c2[nH]c(-c3ccccc3)cc2c1)Nc1ccccc1` [Example 18, 2-(7-(benzylamino)-2-phenyl-1H-indol-5-yl)-N-phenylacetamide] fall in the same range of EC50: 300 to 1000 nM for the first, 300 to 1000 nM for the second.

`CCN(CC)C(=O)Cc1cc(NC2CCCC2)c2[nH]c(-c3ccccc3)cc2c1` [Example 11, 2-(7-(cyclopentylamino)-2-phenyl-1H-indol-5-yl)-N,N-diethylacetamide] and `CCN(CC)C(=O)Cc1cc(NC2CCOCC2)c2[nH]c(-c3ccccc3)cc2c1` [Example 12, N,N-diethyl-2-(2-phenyl-7-((tetrahydro-2H-pyran-4-yl)amino)-1H-indol-5-yl)acetamide] cannot be ordered by EC50: 300 to 1000 nM for the first, no more than 300 nM for the second.

First: CCN(CC)C(=O)Cc1cc(NCc2ccncc2)c2[nH]c(-c3ccccc3)cc2c1 [Example 13, N,N-diethyl-2-(2-phenyl-7-((pyridin-4-ylmethyl)amino)-1H-indol-5-yl)acetamide]
Second: CCNS(=O)(=O)c1cc(NCc2ccccc2)c2[nH]c(-c3ccccc3)cc2c1 [Example 21, 7-(benzylamino)-N-ethyl-2-phenyl-1H-indole-5-sulfonamide]
The EC50 of the first is lower: 300 to 1000 nM for the first, greater than 1000 nM for the second. The first is the more potent here.

`CNC(=O)Cc1cc(NC2CCOCC2)c2[nH]c(-c3ccccc3)cc2c1` [Example 15, N-methyl-2-(2-phenyl-7-((tetrahydro-2H-pyran-4-yl)amino)-1H-indol-5-yl)acetamide] and `CNC(=O)Cc1cc(NC2CCCC2)c2[nH]c(-c3ccccc3)cc2c1` [Example 16, 2-(7-(cyclopentylamino)-2-phenyl-1H-indol-5-yl)-N-methylacetamide] cannot be ordered by EC50: no more than 300 nM for the first, no more than 300 nM for the second.

`CCNS(=O)(=O)c1cc(NC2CCOCC2)c2[nH]c(-c3ccccc3)cc2c1` [Example 20, N-ethyl-2-phenyl-7-((tetrahydro-2H-pyran-4-yl)amino)-1H-indole-5-sulfonamide] and `N#CCc1cc(NC2CCOCC2)c2[nH]c(-c3ccccc3)cc2c1` [Example 23, 2-(2-phenyl-7-((tetrahydro-2H-pyran-4-yl)amino)-1H-indol-5-yl)acetonitrile] cannot be ordered by EC50: no more than 300 nM for the first, no more than 300 nM for the second.

`CC(C)(O)C#Cc1cc(NC2CCOCC2)c2[nH]c(-c3ccccc3)cc2c1` [Example 24, 2-methyl-4-(2-phenyl-7-((tetrahydro-2H-pyran-4-yl)amino)-1H-indol-5-yl)but-3-yn-2-ol] and `CC(C)(O)C#Cc1cc(NC2CCCC2)c2[nH]c(-c3ccccc3)cc2c1` [Example 25, 4-(7-(cyclopentylamino)-2-phenyl-1H-indol-5-yl)-2-methylbut-3-yn-2-ol] cannot be ordered by EC50: no more than 300 nM for the first, no more than 300 nM for the second.

`OCCOCc1cc(NC2CCCC2)c2[nH]c(-c3ccccc3)cc2c1` [Example 26, 2-((7-(cyclopentylamino)-2-phenyl-1H-indol-5-yl)methoxy)ethan-1-ol] and `OCCOCCc1cc(NC2CCOCC2)c2[nH]c(-c3ccccc3)cc2c1` [Example 33, 2-(2-(2-phenyl-7-((tetrahydro-2H-pyran-4-yl)amino)-1H-indol-5-yl)ethoxy)ethan-1-ol] cannot be ordered by EC50: no more than 300 nM for the first, no more than 300 nM for the second.

`OCCOCCCc1cc(NC2CCOCC2)c2[nH]c(-c3ccccc3)cc2c1` [Example 28, 2-(3-(2-phenyl-7-((tetrahydro-2H-pyran-4-yl)amino)-1H-indol-5-yl)propoxy)ethan-1-ol] and `OCCCOCCOCc1cc(NC2CCOCC2)c2[nH]c(-c3ccccc3)cc2c1` [Example 34, 3-(2-((2-phenyl-7-((tetrahydro-2H-pyran-4-yl)amino)-1H-indol-5-yl)methoxy)ethoxy)propan-1-ol] cannot be ordered by EC50: no more than 300 nM for the first, no more than 300 nM for the second.

`CC(C)(O)COCc1cc(NC2CCOCC2)c2[nH]c(-c3ccccc3)cc2c1` [Example 30, 2-methyl-1-((2-phenyl-7-((tetrahydro-2H-pyran-4-yl)amino)-1H-indol-5-yl)methoxy)propan-2-ol] and `CC(C)(O)COCCOCc1cc(NC2CCOCC2)c2[nH]c(-c3ccccc3)cc2c1` [Example 31, 2-methyl-1-(2-((2-phenyl-7-((tetrahydro-2H-pyran-4-yl)amino)-1H-indol-5-yl)methoxy)ethoxy)propan-2-ol] cannot be ordered by EC50: no more than 300 nM for the first, no more than 300 nM for the second.

`CCC(O)(CC)COCCOCc1cc(NC2CCOCC2)c2[nH]c(-c3ccccc3)cc2c1` [Example 32, 3-((2-((2-phenyl-7-((tetrahydro-2H-pyran-4-yl)amino)-1H-indol-5-yl)methoxy)ethoxy)methyl)pentan-3-ol] and `OC1CCC(OCc2cc(NC3CCOCC3)c3[nH]c(-c4ccccc4)cc3c2)CC1` (stereo not shown) [Example 35, 4-((2-phenyl-7-((tetrahydro-2H-pyran-4-yl)amino)-1H-indol-5-yl)methoxy)cyclohexan-1-ol] cannot be ordered by EC50: no more than 300 nM for the first, no more than 300 nM for the second.

`c1ccc(-c2cc3cc(COC4CCOCC4)cc(NC4CCOCC4)c3[nH]2)cc1` [Example 37, 2-phenyl-N-(tetrahydro-2H-pyran-4-yl)-5-(((tetrahydro-2H-pyran-4-yl)oxy)methyl)-1H-indol-7-amine] gave an EC50 of no more than 300 nM.
